Results from patent US20260265252A1, “SOLID STATE FORMS OF IMIPRIDONE DERIVATIVE” (CHIMERIX, INC., priority 2024, published 2026).
Where a name gives a salt, the structure may show the parent alone.

Assay: ICH-compliant stability study of ONC206-HCl Drug Substance (appearance, XRPD form, HPLC assay, purity/impurities, water content, particle size, microbial)
Assay type: physicochemical
Parameters: key to Each unidentified impurity (NMT 0.5% area) / Appearance (White to off-white solid) / Polymorphic form (XRPD) (Consistent with form 2 reference diffractogram): C = Conforms; A = Absence
Protocol: The purpose of the ICH-compliant stability study was to evaluate the performance to specifications of ONC206-HCl Drug Substance under specified container closure configuration, storage conditions, and intervals.
The study was performed according to ICH Q1A(R2) and QlE Guidance documents. […]
The Container Closure Systems were: • Primary container: LDPE bag, 4×8 inches (Source: Nexus—64378); bag closure PE 180 nm (Source: Entourage), • Secondary container: LDPE bag, 4×8 inches (Source: Nexus—64378); bag closure PE 180 nm (Source: Entourage), • Tertiary container: Heat-sealed foil bag, 15×30 (Source: SERCALIA S.L.—10234), and • Outer container: Plastic drum, 6 L (Source: Curtec, HDPE ref 54021) or Plastic drum, 3.6 L (Source: Curtec).

[1] = 25 ± 2° C./60% ± 5% RH long term storage conditions, 0 months

SMILES: O=C1C2=C(CCN(Cc3ccccc3)C2)N2CCN=C2N1Cc1ccc(F)cc1F [ONC206-HCl, 7-benzyl-4-(2,4-difluorobenzyl)-2,4,6,7,8,9-hexahydroimidazo[1,2-a]pyrido[3,4-e]pyrimidin-5(1H)-one]
- period over which stability is confirmed (2-8° C. (Table 39)): 6 months
- Appearance (White to off-white solid) (2-8° C., 0 months): C
- Assay by HPLC-UV (Anhydrous & Solvent Free basis) 97.0-103.0% w/w (2-8° C., 0 months): 101.6 % w/w
- Each unidentified impurity (NMT 0.5% area) (2-8° C., 0 months): C
- Particle Size (Malvern) D10 (Report result μm) (2-8° C., 0 months): 28.2 μm
- Particle Size (Malvern) D50 (Report result μm) (2-8° C., 0 months): 91.4 μm
- Particle Size (Malvern) D90 (Report result μm) (2-8° C., 0 months): 201.3 μm
- Polymorphic form (XRPD) (Consistent with form 2 reference diffractogram) (2-8° C., 0 months): C
- Purity by HPLC (NLT 98.0% area) (2-8° C., 0 months): 100.0 % area
- Total impurities (NMT 2.0% area) (2-8° C., 0 months): 0.00 % area
- Water Content by Kf (Report result % w/w) (2-8° C., 0 months): 9.3 % w/w
- Appearance (White to off-white solid) (2-8° C., 1 months): C
- Assay by HPLC-UV (Anhydrous & Solvent Free basis) 97.0-103.0% w/w (2-8° C., 1 months): 101.3 % w/w
- Each unidentified impurity (NMT 0.5% area) (2-8° C., 1 months): C
- Particle Size (Malvern) D10 (Report result μm) (2-8° C., 1 months): 27.8 μm
- Particle Size (Malvern) D50 (Report result μm) (2-8° C., 1 months): 89.8 μm
- Particle Size (Malvern) D90 (Report result μm) (2-8° C., 1 months): 196.0 μm
- Polymorphic form (XRPD) (Consistent with form 2 reference diffractogram) (2-8° C., 1 months): C
- Purity by HPLC (NLT 98.0% area) (2-8° C., 1 months): 100.0 % area
- Total impurities (NMT 2.0% area) (2-8° C., 1 months): 0.00 % area
- Water Content by Kf (Report result % w/w) (2-8° C., 1 months): 9.2 % w/w
- Appearance (White to off-white solid) (2-8° C., 2 months): C
- Assay by HPLC-UV (Anhydrous & Solvent Free basis) 97.0-103.0% w/w (2-8° C., 2 months): 100.3 % w/w
- Each unidentified impurity (NMT 0.5% area) (2-8° C., 2 months): C
- Particle Size (Malvern) D10 (Report result μm) (2-8° C., 2 months): 29.4 μm
- Particle Size (Malvern) D50 (Report result μm) (2-8° C., 2 months): 91.6 μm
- Particle Size (Malvern) D90 (Report result μm) (2-8° C., 2 months): 189.0 μm
- Polymorphic form (XRPD) (Consistent with form 2 reference diffractogram) (2-8° C., 2 months): C
- Purity by HPLC (NLT 98.0% area) (2-8° C., 2 months): 100.0 % area
- Total impurities (NMT 2.0% area) (2-8° C., 2 months): 0.00 % area
- Water Content by Kf (Report result % w/w) (2-8° C., 2 months): 9.4 % w/w
- Appearance (White to off-white solid) (2-8° C., 3 months): C
- Assay by HPLC-UV (Anhydrous & Solvent Free basis) 97.0-103.0% w/w (2-8° C., 3 months): 100.3 % w/w
- Each unidentified impurity (NMT 0.5% area) (2-8° C., 3 months): C
- Particle Size (Malvern) D10 (Report result μm) (2-8° C., 3 months): 28.3 μm
- Particle Size (Malvern) D50 (Report result μm) (2-8° C., 3 months): 90.9 μm
- Particle Size (Malvern) D90 (Report result μm) (2-8° C., 3 months): 197.0 μm
- Polymorphic form (XRPD) (Consistent with form 2 reference diffractogram) (2-8° C., 3 months): C
- Purity by HPLC (NLT 98.0% area) (2-8° C., 3 months): 100.0 % area
- Total impurities (NMT 2.0% area) (2-8° C., 3 months): 0.00 % area
- Water Content by Kf (Report result % w/w) (2-8° C., 3 months): 9.5 % w/w
- Appearance (White to off-white solid) (2-8° C., 6 months): C
- Assay by HPLC-UV (Anhydrous & Solvent Free basis) 97.0-103.0% w/w (2-8° C., 6 months): 99.6 % w/w
- Each unidentified impurity (NMT 0.5% area) (2-8° C., 6 months): C
- Particle Size (Malvern) D10 (Report result μm) (2-8° C., 6 months): 28.3 μm
- Particle Size (Malvern) D50 (Report result μm) (2-8° C., 6 months): 91.1 μm
- Particle Size (Malvern) D90 (Report result μm) (2-8° C., 6 months): 199.0 μm
- Polymorphic form (XRPD) (Consistent with form 2 reference diffractogram) (2-8° C., 6 months): C
- Purity by HPLC (NLT 98.0% area) (2-8° C., 6 months): 100.0 % area
- Total impurities (NMT 2.0% area) (2-8° C., 6 months): 0.00 % area
- Water Content by Kf (Report result % w/w) (2-8° C., 6 months): 9.3 % w/w
- period over which stability is confirmed (25° C. (Table 42), 60% RH long term storage conditions): 12 months
- Appearance (White to off-white solid) [1]: C
- Assay by HPLC-UV (Anhydrous & Solvent Free basis) 97.0-103.0% w/w [1]: 101.6 % w/w
- Each unidentified impurity (NMT 0.5% area) [1]: C
- Particle Size (Malvern) D10 (Report result μm) [1]: 28.2 μm
- Particle Size (Malvern) D50 (Report result μm) [1]: 91.4 μm
- Particle Size (Malvern) D90 (Report result μm) [1]: 201.3 μm
- Polymorphic form (XRPD) (Consistent with form 2 reference diffractogram) [1]: C
- Purity by HPLC (NLT 98.0% area) [1]: 100.0 % area
- Total impurities (NMT 2.0% area) [1]: 0.00 % area
- Water Content by Kf (Report result % w/w) [1]: 9.3 % w/w
- Appearance (White to off-white solid) (25 ± 2° C./60% ± 5% RH long term storage conditions, 3 months): C
